“Also recorded” adds a separate entry of the source.
Tested on: orofacial inflammatory pain
Assay: thermal operant orofacial pain test after carrageenan-induced orofacial inflammation
Type: in vivo, Male Sprague Dawley rats
Protocol: General. Male Sprague Dawley rats (200-300 g, N=18) were lightly anesthetized using isoflurane (1-2.5%, inhalation) and their hair was bilaterally removed (FIG. 1) from the orofacial region using clippers, followed by depilatory cream 1 day prior to behavioral testing. Excess cream was removed with a moistened paper towel to minimize skin irritation. Rats were food fasted for 12-15 hours prior to each testing session and following each session were provided with standard food chow. Animals were tested at the same time of the day and a recovery day from the fasting was included between the testing sessions to minimize nutritional differences from their normal food routine. Water was made available ad libitum before and after testing sessions and animal weight was recorded daily. The animals were then brought into the behavioral procedure room 1 hour prior to testing and allowed to acclimate to the temperature and ambient noise of the room. Animal testing procedures and general handling complied with the ethical guidelines and standards established by the Institutional Animal Care and Use Committee at the University of Florida and all procedures complied with the Guide for Care and Use of Laboratory Animals (Council, 1996).
Thermal Testing. A testing cage (20.3 cm W×20.3 cm D×16.2 cm H) with acrylic walls was constructed with an opening in one wall (4×6 cm) which was lined with grounded metal (aluminum) tubing. The tubing served as a thermode when connected to a water pump (Model RTE110B, NES Laboratories, Inc.) via flexible polyethylene tubing through which heated water (range: 37.7-57.2° C.) was circulated (FIGS. 2A and 2B). A standard rodent watering bottle containing a diluted (1:2 with water) sweetened condensed milk solution (Nestle Carnation Company, room temperature) was mounted outside the cage. The circulating water pump was activated and the appropriate temperature was set prior to testing the animals. The room temperature was maintained at 22±1° C. for all behavioral tests.
Unrestrained animals were placed separately in a testing cage, and the data acquisition system was activated (WinDaq Lite Data Acq DI-194, DATAQ Instruments, Inc). The bottle was then positioned in proximity to the cage such that the animal was allowed access to the reward bottle when simultaneously contacting the thermode with its face. The metal spout on the watering bottle was connected to a 13-volt DC power supply and, in series, to a multi-channel data acquisition module (WinDaq Lite Data Acq DI-194, DATAQ Instruments, Inc.). When the rat drank from the water bottle, the skin on its shaved face contacted the grounded thermode, and the animal's tongue contacted the metal spout on the water bottle, completing an electrical circuit (FIG. 2A). The bottle position was adjusted horizontally and vertically to facilitate contact of the thermode within the same shaved area of the face for each animal (FIG. 2B). The closed circuit was registered in the computer and data were collected at 60 Hz for the entire length of the experiment. Each spout contact was recorded as a ‘licking’ event. A separate circuit was established from the metal thermode to the animal by grounding the floor with an aluminum sheet for recording of ‘facial contact’ events (FIG. 3). The latter circuit was necessary to determine if the animal made an attempt at the reward bottle but was discouraged by the temperature of the thermode. The duration of each facial contact and the total number of events (licking, facial contact) were recorded. The investigator monitored online data acquisition to ensure that each recorded licking event from the first circuit corresponded to a recorded facial contact on the tubing (the second circuit). […]

[1] = one animal, retested 30 minutes after morphine 0.5 mg/kg s.c., post-inflammation

CN1CC[C@]23c4c5ccc(O)c4O[C@H]2[C@@H](O)C=C[C@H]3[C@H]1C5 [morphine]
effect on inflammatory hyperalgesia (operant outcome measures) (morphine 0.5 mg/kg s.c. 30 minutes prior to testing, 2.5 hours post-carrageenan, 45.5° C., N=6): all but one of these effects was completely reversed; also recorded: completely blocked | operant outcome measures of morphine-treated inflamed animals versus normal animals (morphine-treated animals tested at 45.5° C., all measures except facial contact events): comparable to normal animals tested at 37.7 °C | intake (post-morphine) (one animal, retested 30 minutes after morphine 0.5 mg/kg s.c., given after the 3 hours post-inflammation trial, 30-minute operant trial): 17.8 g | facial contact duration (post-morphine) [1]: 634 s | facial contacts (post-morphine) [1]: 309 | licking events (post-morphine) [1]: 3582 | ratio facial duration/facial contact (post-morphine) [1]: 2.05 | ratio licking/contact events (post-morphine) [1]: 11.6 | operant responses after morphine, pain indices (FIG. 7) (single animal, repeated testing following carrageenan, before and after morphine): analgesic response

carrageenan
effect of carrageenan inflammation on operant outcome measures (carrageenan 6 mg s.c. mid-cheek bilaterally, tested 3 hours post-inflammation at 45.5° C., all measures except facial contact events (FIG. 6)): significant reduction

— patent US20100331722A1, “Device and method for assessing operant facial pain” (priority 2004, published 2010)
